In ChEMBL document CHEMBL1201862, “PubChem BioAssay data set” (2004):
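Method: 48-hour compound exposure of cells in 96-well plates, five concentrations, linear interpolation of endpoints. Here, GI50 denotes the concentration required for 50% inhibition of growth.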 Active and inactive are the calls of the source. Rule as the data show it: active = GI50 up to about 1.1 µM and inactive = higher.

Key:
Experiment in all cases: NCI tumour cell line growth inhibition, 48 h
[1] = system: UACC-62
[2] = system: NCI-H522
[3] = system: MDA-MB-435
[4] = system: U-251
[5] = system: SNB-75
[6] = system: SK-OV-3
[7] = system: HCT-116
[8] = system: RPMI-8226
[9] = system: RXF 393
[10] = system: LOX IMVI
[11] = system: NCI-H460
[12] = system: SK-MEL-2
[13] = system: KM12
[14] = system: EKVX
[15] = system: K562
[16] = system: SW-620
[17] = system: SF-268
[18] = system: MOLT-4
[19] = system: A549
[20] = system: SNB-19
[21] = system: UO-31
[22] = system: TK-10
[23] = system: BT-549
[24] = system: HCT-15
[25] = system: T47D
[26] = system: OVCAR-8
[27] = system: HT-29
[28] = system: OVCAR-5
[29] = system: MDA-MB-231
[30] = system: CCRF-CEM
[31] = system: OVCAR-3
[32] = system: SF-539
[33] = system: SN12C
[34] = system: CAKI-1
[35] = system: COLO 205
[36] = system: IGROV-1
[37] = system: MCF7
[38] = system: SF-295
[39] = system: OVCAR-4
[40] = system: M14
[41] = system: 786-0
[42] = system: ACHN
[43] = system: Hs-578T
[44] = system: SK-MEL-28
[45] = system: HL-60
[46] = system: HOP-62
[47] = system: PC-3
[48] = system: UACC-257
[49] = system: NCI/ADR-RES
[50] = system: NCI-H226
[51] = system: DU-145
[52] = system: SR
[53] = system: SK-MEL-5
[54] = system: A498
[55] = system: MDA-N
[56] = system: HCC 2998
[57] = system: Malme-3M
[58] = system: NCI-H23
[59] = system: HOP-92

Structure (SMILES): O=Cc1ccccc1B(O)O
- GI50 [1]: 31.5 µM (inactive)
- GI50 [2]: 22.9 µM (inactive)
- GI50 [3]: 99.1 µM (inactive)
- GI50 [4]: 30.7 µM (inactive)
- GI50 [5]: 43.8 µM (inactive)
- GI50 [6]: > 100 µM (inactive)
- GI50 [7]: 43.2 µM (inactive)
- GI50 [8]: < 0.01 µM (active)
- GI50 [9]: 15.7 µM (inactive)
- GI50 [10]: 20.7 µM (inactive)
- GI50 [11]: > 100 µM (inactive)
- GI50 [12]: > 100 µM (inactive)
- GI50 [13]: > 100 µM (inactive)
- GI50 [14]: < 0.01 µM (active)
- GI50 [15]: 23.1 µM (inactive)
- GI50 [16]: 25.7 µM (inactive)
- GI50 [17]: > 100 µM (inactive)
- GI50 [18]: 1.09 µM (active)
- GI50 [19]: 12.7 µM (inactive)
- GI50 [20]: > 100 µM (inactive)
- GI50 [21]: 54.1 µM (inactive)
- GI50 [22]: 55.6 µM (inactive)
- GI50 [23]: 15.1 µM (inactive)
- GI50 [24]: 62.7 µM
- GI50 [25]: 0.0147 µM (active)
- GI50 [26]: 67.8 µM (inactive)
- GI50 [27]: 18.9 µM (inactive)
- GI50 [28]: 87.5 µM (inactive)
- GI50 [29]: 37.8 µM (inactive)
- GI50 [30]: 6.34 µM (inactive)
- GI50 [31]: 33.6 µM (inactive)
- GI50 [32]: > 100 µM (inactive)
- GI50 [33]: > 100 µM (inactive)
- GI50 [34]: 47.5 µM (inactive)
- GI50 [35]: 14.7 µM (inactive)
- GI50 [36]: 29.6 µM (inactive)
- GI50 [37]: 29.4 µM (inactive)
- GI50 [38]: > 100 µM (inactive)
- GI50 [39]: 0.368 µM (active)
- GI50 [40]: > 100 µM (inactive)
- GI50 [41]: 43.4 µM (inactive)
- GI50 [42]: 19.1 µM (inactive)
- GI50 [43]: 0.231 µM (active)
- GI50 [44]: 68.4 µM (inactive)
- GI50 [45]: 22 µM (inactive)
- GI50 [46]: > 100 µM (inactive)
- GI50 [47]: 22.1 µM (inactive)
- GI50 [48]: 25.8 µM (inactive)
- GI50 [49]: 52 µM (inactive)
- GI50 [50]: > 100 µM (inactive)
- GI50 [51]: < 0.01 µM (active)
- GI50 [52]: < 0.01 µM (active)

Structure (SMILES): O=C(/N=N/c1ccccc1Cl)NNc1ccccc1Cl
- GI50 [1]: 43.4 µM (inactive)
- GI50 [2]: 23.6 µM (inactive)
- GI50 [3]: 31 µM (inactive)
- GI50 [4]: 41.6 µM (inactive)
- GI50 [53]: 85.3 µM (inactive)
- GI50 [5]: > 100 µM (inactive)
- GI50 [7]: 20.5 µM (inactive)
- GI50 [8]: 24.7 µM (inactive)
- GI50 [54]: 29 µM (inactive)
- GI50 [10]: 23.4 µM (inactive)
- GI50 [11]: 65 µM (inactive)
- GI50 [12]: 32 µM (inactive)
- GI50 [15]: 27.8 µM (inactive)
- GI50 [16]: 40.7 µM (inactive)
- GI50 [17]: 60.5 µM (inactive)
- GI50 [18]: 29.3 µM (inactive)
- GI50 [19]: 55.5 µM (inactive)
- GI50 [55]: 36.5 µM (inactive)
- GI50 [20]: 63.2 µM (inactive)
- GI50 [21]: 21.8 µM (inactive)
- GI50 [22]: 50.9 µM (inactive)
- GI50 [23]: > 10 µM (inactive)
- GI50 [56]: 27.1 µM (inactive)
- GI50 [24]: 60.7 µM
- GI50 [25]: 30.5 µM (inactive)
- GI50 [26]: 27.6 µM (inactive)
- GI50 [27]: 93.8 µM (inactive)
- GI50 [28]: 43.2 µM (inactive)
- GI50 [29]: 54.3 µM (inactive)
- GI50 [30]: 22.2 µM (inactive)
- GI50 [31]: 35 µM (inactive)
- GI50 [33]: 61.7 µM (inactive)
- GI50 [57]: 67 µM (inactive)
- GI50 [34]: 36.7 µM (inactive)
- GI50 [36]: 20.4 µM (inactive)
- GI50 [39]: 16.2 µM (inactive)
- GI50 [40]: 56.8 µM (inactive)
- GI50 [41]: 18.5 µM (inactive)
- GI50 [42]: 28.1 µM (inactive)
- GI50 [58]: 50 µM (inactive)
- GI50 [44]: 69.7 µM (inactive)
- GI50 [45]: 19.2 µM (inactive)
- GI50 [46]: 9.48 µM (inactive)
- GI50 [47]: 30 µM (inactive)
- GI50 [48]: > 100 µM (inactive)
- GI50 [50]: > 100 µM (inactive)
- GI50 [51]: 43.2 µM (inactive)
- GI50 [52]: 27.5 µM (inactive)

Structure (SMILES): CCOP(=O)(OCC)/C(C#N)=C/c1cn(C)cn1
- GI50 [1]: > 100 µM (inactive)
- GI50 [2]: > 100 µM (inactive)
- GI50 [3]: > 100 µM (inactive)
- GI50 [4]: > 100 µM (inactive)
- GI50 [53]: > 10 µM (inactive)
- GI50 [5]: > 100 µM (inactive)
- GI50 [6]: > 100 µM (inactive)
- GI50 [54]: > 100 µM (inactive)
- GI50 [59]: > 100 µM (inactive)
- GI50 [9]: > 100 µM (inactive)
- GI50 [11]: > 100 µM (inactive)
- GI50 [12]: > 100 µM (inactive)
- GI50 [13]: > 100 µM (inactive)
- GI50 [14]: > 100 µM (inactive)
- GI50 [15]: > 100 µM (inactive)
- GI50 [16]: > 100 µM (inactive)
- GI50 [17]: > 100 µM (inactive)
- GI50 [18]: > 10 µM (inactive)
- GI50 [19]: > 100 µM (inactive)
- GI50 [55]: > 100 µM (inactive)
- GI50 [20]: > 100 µM (inactive)
- GI50 [21]: > 100 µM (inactive)
- GI50 [22]: > 100 µM (inactive)
- GI50 [23]: > 100 µM (inactive)
- GI50 [56]: > 100 µM (inactive)
- GI50 [24]: > 100 µM
- GI50 [26]: > 100 µM (inactive)
- GI50 [27]: > 100 µM (inactive)
- GI50 [28]: > 100 µM (inactive)
- GI50 [29]: > 100 µM (inactive)
- GI50 [30]: > 100 µM (inactive)
- GI50 [31]: > 100 µM (inactive)
- GI50 [32]: > 100 µM (inactive)
- GI50 [33]: > 100 µM (inactive)
- GI50 [57]: > 100 µM (inactive)
- GI50 [34]: > 100 µM (inactive)
- GI50 [35]: > 100 µM (inactive)
- GI50 [36]: > 100 µM (inactive)
- GI50 [37]: > 100 µM (inactive)
- GI50 [38]: > 100 µM (inactive)
- GI50 [39]: > 100 µM (inactive)
- GI50 [40]: > 100 µM (inactive)
- GI50 [42]: > 100 µM (inactive)
- GI50 [58]: > 100 µM (inactive)
- GI50 [44]: > 100 µM (inactive)
- GI50 [46]: > 100 µM (inactive)
- GI50 [47]: > 100 µM (inactive)
- GI50 [48]: > 100 µM (inactive)
- GI50 [49]: > 100 µM (inactive)
- GI50 [50]: > 100 µM (inactive)
- GI50 [52]: > 100 µM (inactive)

Structure (SMILES): Cc1cccc(NC(=S)Nc2ccc([N+](=O)[O-])cc2)n1
- GI50 [1]: > 100 µM (inactive)
- GI50 [3]: > 100 µM (inactive)
- GI50 [4]: > 100 µM (inactive)
- GI50 [53]: > 100 µM (inactive)
- GI50 [5]: > 100 µM (inactive)
- GI50 [6]: > 100 µM (inactive)
- GI50 [7]: > 100 µM (inactive)
- GI50 [8]: > 100 µM (inactive)
- GI50 [54]: > 100 µM (inactive)
- GI50 [59]: > 100 µM (inactive)
- GI50 [9]: > 100 µM (inactive)
- GI50 [10]: > 100 µM (inactive)
- GI50 [11]: > 100 µM (inactive)
- GI50 [12]: > 100 µM (inactive)
- GI50 [13]: > 100 µM (inactive)
- GI50 [14]: > 100 µM (inactive)
- GI50 [15]: > 100 µM (inactive)
- GI50 [16]: > 100 µM (inactive)
- GI50 [17]: > 100 µM (inactive)
- GI50 [18]: > 100 µM (inactive)
- GI50 [20]: > 100 µM (inactive)
- GI50 [21]: > 100 µM (inactive)
- GI50 [22]: > 100 µM (inactive)
- GI50 [23]: > 100 µM (inactive)
- GI50 [56]: > 100 µM (inactive)
- GI50 [24]: > 100 µM
- GI50 [25]: > 100 µM (inactive)
- GI50 [26]: > 100 µM (inactive)
- GI50 [27]: > 100 µM (inactive)
- GI50 [29]: > 100 µM (inactive)
- GI50 [30]: > 100 µM (inactive)
- GI50 [32]: > 100 µM (inactive)
- GI50 [34]: > 100 µM (inactive)
- GI50 [35]: > 100 µM (inactive)
- GI50 [36]: > 100 µM (inactive)
- GI50 [37]: > 100 µM (inactive)
- GI50 [38]: > 100 µM (inactive)
- GI50 [39]: > 100 µM (inactive)
- GI50 [40]: > 100 µM (inactive)
- GI50 [41]: > 100 µM (inactive)
- GI50 [42]: > 100 µM (inactive)
- GI50 [58]: > 100 µM (inactive)
- GI50 [43]: > 100 µM (inactive)
- GI50 [44]: > 100 µM (inactive)
- GI50 [45]: > 100 µM (inactive)
- GI50 [46]: > 100 µM (inactive)
- GI50 [47]: > 100 µM (inactive)
- GI50 [48]: > 100 µM (inactive)
- GI50 [49]: > 100 µM (inactive)
- GI50 [50]: > 100 µM (inactive)
- GI50 [51]: > 100 µM (inactive)
- GI50 [52]: > 100 µM (inactive)
